Values of other authors as cited in patent publication US20070269404A1, “Controlling Sugar Feeding Insects” (Westham Ltd., priority 2006, published 2007).

System: birds and mammals
Details: Williams et al. 2003

Spinosad
toxicity to birds and mammals: very little toxicity
